Where “and” joins values, the source holds several entries; their conditions need not be identical. Identical values can stand only once.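 Following 48 hours of exposure in 96-well plates, responses at five concentrations were used to interpolate endpoints linearly. GI50: concentration for 50% inhibition of growth. At the TGI there is no net growth.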
Key:
Test in all cases: NCI anticancer screen, dose series, 48 h
NCI-H522 lung = tested on: NCI-H522 lung
MDA-MB-435 = tested on: MDA-MB-435
SK-MEL-2 melanoma = tested on: SK-MEL-2 melanoma
PC-3 prostate = tested on: PC-3 prostate
SF-268 CNS = tested on: SF-268 CNS
786-0 renal = tested on: 786-0 renal
HCC-2998 colon = tested on: HCC-2998 colon
NCI-H23 lung = tested on: NCI-H23 lung
HCT-116 colon = tested on: HCT-116 colon
COLO 205 colon = tested on: COLO 205 colon

Structure (SMILES) | GI50 (NCI-H522 lung) | TGI (NCI-H522 lung) | GI50 (MDA-MB-435) | TGI (MDA-MB-435) | GI50 (SK-MEL-2 melanoma) | TGI (SK-MEL-2 melanoma) | GI50 (PC-3 prostate) | TGI (PC-3 prostate) | GI50 (SF-268 CNS) | TGI (SF-268 CNS) [µM] | GI50 (786-0 renal) | TGI (786-0 renal) | GI50 (HCC-2998 colon) [µM] | TGI (HCC-2998 colon) [µM] | GI50 (NCI-H23 lung) | TGI (NCI-H23 lung) | GI50 (HCT-116 colon) | TGI (HCT-116 colon) | GI50 (COLO 205 colon) | TGI (COLO 205 colon)
O=C(Nc1cccc(-c2ccc(Cl)c(C(F)(F)F)c2)c1)C1CCN(Cc2cccc3cccnc23)CC1 | 1.73 µM | 3.68 µM | 1.71 µM | 3.1 µM | 1.99 µM | 3.85 µM | 1.41 µM | 2.93 µM | 1.79 µM | 3.55 | 1.7 µM | 3.26 µM | 1.43 | 2.85 | 1.64 µM | 3.19 µM | 1.26 µM | 2.76 µM | 1.45 µM | 3.12 µM
CCC(=O)Nc1ccc(C)c(-c2ccc(C(=O)NCC3CC3)cc2)c1 | > 25 µM | > 25 µM | > 25 µM | > 25 µM | > 25 µM | > 25 µM | > 25 µM | > 25 µM | > 25 µM | > 25 | > 25 µM | > 25 µM | > 25 | > 25 | > 25 µM | > 25 µM | > 25 µM | > 25 µM | > 25 µM | > 25 µM
CC(C)=CCC/C(C)=C\CCC1(C)OC(=O)C2CC21 (stereo not drawn) | 52.4 µM and 19.2 µM | > 100 µM and 47.1 µM | 73.9 µM and 23.1 µM | > 100 µM and 56.7 µM |  | > 100 µM |  | > 100 µM and 85.2 µM |  | > 100 | > 100 µM and 17.5 µM | > 100 µM and 32.7 µM |  | > 100 |  | > 100 µM | 52.3 µM and 16.6 µM | > 100 µM and 31.6 µM |  | > 100 µM
Cc1ccc(NC(=O)CSc2nnc3n(Cc4ccccc4)c(=O)c4c(C)c(C(N)=O)sc4n23)cc1 | 3.85 µM | > 100 µM | > 100 µM | > 100 µM | 16 µM | 43.3 µM | > 100 µM | > 100 µM | 14.4 µM | 86.8 | 10 µM | 49.7 µM | > 100 | > 100 | 17.3 µM | > 100 µM | 3.5 µM | > 100 µM | 78 µM | > 100 µM
CC(=[N-])N1CCC[C@@H](Nc2c3ccccc3nc3ccccc23)C1.[Cl][Pt].[NH-]CCC[NH-] | 0.0258 µM | 0.165 µM | 4.43 µM | 18.4 µM | 2.28 µM | 7.23 µM | 3.57 µM | 44.9 µM | 3.68 µM | > 100 | 3.89 µM | > 24.8 µM | 1.7 | 9.17 | 0.198 µM | 2.75 µM | 1.28 µM | > 100 µM | 0.431 µM | 2.69 µM
CCOC(=O)c1cc(-c2ccccc2)[nH]c1N/N=C/c1ccc(Cl)cc1 | 89.4 µM | > 100 µM | > 100 µM | > 100 µM | 62.6 µM | > 100 µM | 21.8 µM | > 100 µM | > 100 µM | > 100 | 50.4 µM | > 100 µM | 54.7 | > 100 | 79.1 µM | > 100 µM | 47.6 µM | > 100 µM | 42.5 µM | > 100 µM
Cc1ccc(NS(=O)(=O)c2cccc(C#N)c2)c2[nH]cc(C#N)c12 |  | 59.9 µM and 23.2 µM | 12.3 µM and 8.31 µM | 55.1 µM and 67.4 µM | 22.5 µM and 15.1 µM | 59.7 µM and 52.4 µM | 12 µM and 19 µM | 98.4 µM and > 100 µM | 35 µM and 30.9 µM | > 100 | 12 µM and 7.67 µM | 55.7 µM and > 100 µM | 25.1 | > 100 | 27.5 µM and 27.7 µM | 84.6 µM and > 100 µM | 0.146 µM and 0.157 µM | > 100 µM | 14.2 µM and 1.51 µM | 53.7 µM and 37.3 µM
